Laboratory results from patent US12516022B2, “Derivatives of aryl hydrocarbon receptor agonists” (AZORA THERAPEUTICS, INC., priority 2021, dated 2026).
Each block holds one compound with its values, some of them ahead of it.

Key:
[1] = target: T1, AhR (Homo sapiens, UniProt P35869); assay: AhR/arnt-luciferase reporter assay in human Huh7 cells
T1 sequence (P35869 11-848): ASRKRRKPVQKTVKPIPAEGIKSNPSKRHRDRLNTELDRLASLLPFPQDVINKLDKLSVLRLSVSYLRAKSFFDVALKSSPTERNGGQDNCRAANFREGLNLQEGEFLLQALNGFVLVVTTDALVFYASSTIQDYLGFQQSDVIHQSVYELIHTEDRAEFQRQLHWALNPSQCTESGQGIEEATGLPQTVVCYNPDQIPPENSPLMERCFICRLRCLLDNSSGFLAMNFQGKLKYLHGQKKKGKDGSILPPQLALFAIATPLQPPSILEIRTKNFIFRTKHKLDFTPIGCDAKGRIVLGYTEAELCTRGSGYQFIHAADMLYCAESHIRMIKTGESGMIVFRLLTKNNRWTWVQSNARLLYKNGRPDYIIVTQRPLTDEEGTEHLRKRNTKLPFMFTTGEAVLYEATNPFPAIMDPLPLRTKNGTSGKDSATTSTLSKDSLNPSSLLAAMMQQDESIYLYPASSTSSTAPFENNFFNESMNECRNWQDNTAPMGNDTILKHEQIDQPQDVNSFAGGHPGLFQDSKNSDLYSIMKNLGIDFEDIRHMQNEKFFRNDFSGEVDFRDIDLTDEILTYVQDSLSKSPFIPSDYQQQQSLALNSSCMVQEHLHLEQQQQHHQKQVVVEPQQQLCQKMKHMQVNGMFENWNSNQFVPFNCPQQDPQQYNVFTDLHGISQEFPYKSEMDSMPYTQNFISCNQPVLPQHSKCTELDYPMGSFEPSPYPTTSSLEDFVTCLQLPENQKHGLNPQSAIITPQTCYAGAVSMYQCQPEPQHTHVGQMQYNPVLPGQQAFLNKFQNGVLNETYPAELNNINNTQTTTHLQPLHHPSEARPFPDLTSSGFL
Protocol: (§1) TCDD and MeBio were included in the study as positive controls. These were added into cell culture media containing charcoal-stripped fetal bovine serum to produce a 2× stock and then added to the reporter cells. The reporter cells were human Huh7 cells or Rat H4IIE cell lines with the native AhR and an AhR/arnt-Luciferase reporter vector. The final concentration of DM50 was 0.1%. Cells were incubated for 22 hours at 37° C. prior to addition of the luciferase detection reagent and measurement of activity in relative luminescence units.

[2] = target: T2, AhR (Rattus norvegicus, UniProt P41738); assay: AhR/arnt-luciferase reporter assay in rat H4IIE cells
T2 sequence (P41738 10-853): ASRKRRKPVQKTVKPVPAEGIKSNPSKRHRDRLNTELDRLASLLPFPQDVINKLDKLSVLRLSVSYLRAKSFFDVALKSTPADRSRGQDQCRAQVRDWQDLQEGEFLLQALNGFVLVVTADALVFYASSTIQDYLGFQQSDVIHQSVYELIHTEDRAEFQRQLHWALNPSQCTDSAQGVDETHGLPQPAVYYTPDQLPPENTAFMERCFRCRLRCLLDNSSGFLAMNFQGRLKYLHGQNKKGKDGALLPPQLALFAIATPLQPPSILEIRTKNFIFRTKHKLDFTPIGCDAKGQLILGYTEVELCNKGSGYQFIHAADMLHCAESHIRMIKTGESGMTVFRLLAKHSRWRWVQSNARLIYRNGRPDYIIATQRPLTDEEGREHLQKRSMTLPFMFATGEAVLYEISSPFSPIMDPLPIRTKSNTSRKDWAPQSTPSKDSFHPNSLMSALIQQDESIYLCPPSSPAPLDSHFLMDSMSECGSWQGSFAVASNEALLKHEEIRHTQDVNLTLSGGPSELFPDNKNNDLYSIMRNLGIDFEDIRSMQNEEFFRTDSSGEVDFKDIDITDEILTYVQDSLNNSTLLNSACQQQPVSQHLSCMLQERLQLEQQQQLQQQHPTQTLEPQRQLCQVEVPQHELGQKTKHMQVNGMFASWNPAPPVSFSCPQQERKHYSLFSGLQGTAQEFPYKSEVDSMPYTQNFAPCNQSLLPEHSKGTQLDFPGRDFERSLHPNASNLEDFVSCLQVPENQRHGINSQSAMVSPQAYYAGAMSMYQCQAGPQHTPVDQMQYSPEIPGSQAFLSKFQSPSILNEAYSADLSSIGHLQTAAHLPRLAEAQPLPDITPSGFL
Protocol: as §1

[3] = tested on: dextran sodium sulfate (DSS)-induced acute colitis; assay: DSS-induced acute colitis mouse model, Compound 8 (Example 6); format: in vivo, C57 BL/6J mice; conditions: mice, 2 mg/kg/day oral gavage twice daily, 9 day test period
Protocol: Eight week old female C57 BL/6J mice, around 20 g body weight purchased from Charles River Laboratories were bred in specific pathogen free IVC cages (4 mice in each cage) in a temperature controlled (20±2° C.) room with a 12 hour light-dark cycle. Chow pellets and tap water were available ad libitum. All experimental protocols were approved by the Institutional Animal Care and Use Committee. The mice were acclimated at the animal facility for at least of three days before the experiments.
To generate dextran sodium sulfate (DSS)-induced acute colitis, the mice were induced with 3% DSS (molecular weight 36,000-50,000; MP Biomedicals, Santa Ana, CA, USA) in their drinking water for 7 consecutive days, and then switched to normal water. DSS solution was freshly prepared and changed daily. These mice were euthanized on day 8 (9th day of the experiment).
The mice were divided into groups with eight mice in each group. Mice were dosed with either 2 mg/kg/day Compound 8, twice daily in 200 μL distilled water (pH=7.0) by gavage from Day 0 to Day 9. Mice in the vehicle group were given only 200 μL distilled water by gavage.
Body weight and disease activity index (DAI) soring were recorded daily to assess the colitis. DAI score was the sum of the weight loss score, stool score and bleeding subscores. A blinded scoring system was employed to assess the colitis. […]

[4] = tested on: dextran sodium sulfate (DSS)-induced acute colitis; assay: DSS-induced acute colitis mouse model, exemplary compounds (Example 7); format: in vivo; conditions: mice, oral gavage twice daily for 9 days, indirubin molar equivalent of 15 mg/kg
Protocol: Eight week old female C57 BL/6J mice, around 20 g body weight purchased from Charles River Laboratories were bred in specific pathogen free IVC cages (4 mice in each cage) in a temperature controlled (20±2° C.) room with a 12 hour light-dark cycle. Chow pellets and tap water were available ad libitum. All experimental protocols were approved by the Institutional Animal Care and Use Committee. The mice were acclimated at the animal facility for at least of three days before the experiments. To generate dextran sodium sulfate (DSS)-induced acute colitis, the mice were induced with 3% DSS (molecular weight 36,000-50,000; […] DSS solution was freshly prepared and changed daily. These mice were euthanized on day 8 (9th day of the experiment). Body weight and disease activity index (DAI) soring were recorded daily to assess the colitis. DAI score was the sum of the weight loss score, stool score and bleeding subscores. A blinded scoring system was employed to assess the colitis. The DAI scorer blinded to the group information and animal ID was responsible for the stool consistency and bleeding evaluations. DAI scoring standards will be followed as below. A study was conducted as in set forth in Example 6. […] Mice in the vehicle group were given only 200 μL distilled water by gavage.

[5] = Indirubin solubility in biorelevant media (FaSSIF, FaSSGF), HPLC; format: physicochemical; conditions: FaSSIF 24 hr, 37° C., 5 μg/mL indirubin or molar equivalent
Protocol: Biorelevant media was prepared as per the supplier's (Biorelevant) method, using FaSSIF/FeSSIF/FaSSGF powders. In brief, FaSSGF media was prepared using 0.06 g/L FaSSIF/FeSSIF/FaSSGF powder in 2 g/L NaCl solution, pH adjusted to 1.6 with 1N HCl. FaSSIF media was prepared with 2.24 g/L FaSSIF/FeSSIF/FaSSGF powder in sodium phosphate buffer, pH adjusted to 6.5 with 1N NaOH. (Sodium phosphate buffer prepared as a 0.42 g/L NaOH, 3.95 g/L NaH2PO4·H2O, 6.19 g/L NaCl solution).
Solubility assessments were performed as follows. An individual flask was prepared for each media and time point. Flasks were placed in a shaking water bath kept at 37° C. Flasks were removed from the bath at specified time points of 1 hour, 4 hours and 24 hours, allowed to cool, and an aliquot taken and filtered.

[6] = Indirubin levels in plasma, colon and lung of colitis mice, LC-MS/MS (Example 8); format: in vivo; conditions: six hours after the last oral dose, indirubin molar equivalent of 15 mg/kg twice daily
Protocol: Five animals from each group in Example 7 were euthanized six hours after the last oral dose. At this time plasma, lung and colon was harvested. Colon was washed three times in cold phosphate buffered saline (PBS) to remove colon contents.
Indirubin was detected utilizing LC-MS/MS.
To prepare samples, an aliquot of 20 μL unknown sample, calibration standard, quality control, single blank and double blank samples were added to the 96-well plate. Samples (except the double blank) for plasma were quenched with 100 μL internal standard respectively (double blank sample was quenched with 100 μL acetonitrile (ACN)), samples (except the double blank) for liver, lung and colon were quenched with 80 μL internal standard respectively (double blank sample was quenched with 80 μL ACN), and then the mixture was vortex-mixed for 5 minutes at 800 rpm and centrifuged for 15 minutes at 3220 g (4000 rpm), at 4° C. 50 μL supernatant was transfer to another clean 96-well plate and the supernatant were directly injected for LC-MS/MS analysis.

SMILES: O=C1/C(=C2/C(=O)N(CO)c3ccccc32)Nc2ccccc21 [Compound 8]
EC50 [1]: 71.5 nM | Activation of the AhR compared with equimolar synthetic indirubin ([1]; human Huh7 and rat H4IIE cells): activates the AhR to an equal or greater extent, and at the same or lower concentration, than an equimolar amount of synthetic indirubin | EC50 greater than the EC50 for indirubin ([1]; human Huh7 cells): about 20% | EC50 [2]: 25.6 nM | Disease activity index (DAI) versus placebo [3]: lower disease activity index

SMILES: O=C1/C(=C2/C(=O)N(CN3CCCC3)c3ccccc32)Nc2ccccc21 [Compound 41]
Efficacy (percent of initial body weight, DAI score) [4]: more effective than an equimolar amount of indirubin

% indirubin recovered in solution [5]: 0.1% | Mean Indirubin Level, Colon [6]: 2.43 ng/g | Mean Indirubin Level, Lung [6]: 2.12 ng/g | Mean Indirubin Level, Plasma [6]: 0.05 ng/mL
SMILES: O=C1Nc2ccccc2/C1=C1/Nc2ccccc2C1=O [synthetic indirubin]
Colon length versus vehicle [4]: vehicle only have a shorter colon than those treated with synthetic indirubin
